Assay results published in ChEMBL document CHEMBL5154753, “Discovery and Structural Optimization of Toddacoumalone Derivatives as Novel PDE4 Inhibitors for the Topical Treatment of Psoriasis” (J Med Chem, 2022).
The source made the active and inactive calls. The rule behind the calls is not given here.

Assays:
[1] = target: cAMP and cAMP-inhibited cGMP 3',5'-cyclic phosphodiesterase 10A (Homo sapiens, UniProt Q9Y233); assay: Inhibition of PDE10A2 (449 to 770 residues) (unknown origin) expressed in Escherichia coli BL21 using [3H-GMP] or [3H-AMP] as substrate incubated for 15 mins by liquid scintillation counting method
[2] = Stability in human liver microsomes assessed as half life measure upto 45 mins in presence of NADPH by LC-MS analysis; assay type: ADME, Microsome
[3] = target: 3',5'-cyclic-AMP phosphodiesterase 4D (Homo sapiens, UniProt Q08499); assay: Inhibition of PDE4D2 (86 to 413 residues) (unknown origin) expressed in Escherichia coli BL21 using [3H-GMP] or [3H-AMP] as substrate incubated for 15 mins by liquid scintillation counting method
[4] = target: Dual specificity calcium/calmodulin-dependent 3',5'-cyclic nucleotide phosphodiesterase 1B (Homo sapiens, UniProt Q01064); assay: Inhibition of PDE1B (10 to 487 residues) (unknown origin) expressed in Escherichia coli BL21 using [3H-GMP] or [3H-AMP] as substrate incubated for 15 mins by liquid scintillation counting method
[5] = target: cGMP-dependent 3',5'-cyclic phosphodiesterase (Homo sapiens, UniProt O00408); assay: Inhibition of PDE2A (580 to 919 residues) (unknown origin) expressed in Escherichia coli BL21 using [3H-GMP] or [3H-AMP] as substrate incubated for 15 mins by liquid scintillation counting method
[6] = Stability in rat liver microsomes assessed as half life measure upto 45 mins in presence of NADPH by LC-MS analysis; assay type: ADME, Microsome
[7] = AUC (0 to t) in ICR mouse at 10 mg/kg, iv measured upto 24 hrs by LC-MS/MS analysis; assay type: ADME, organism-based; set-up: dose 10 mg/kg, time < 24 hrs, route iv; conditions: in vivo
[8] = AUC (0 to infinity) in ICR mouse at 10 mg/kg, iv measured upto 24 hrs by LC-MS/MS analysis; assay type: ADME, organism-based; set-up: time < 24 hrs, dose 10 mg/kg, route iv; conditions: in vivo
[9] = C0 in ICR mouse at 10 mg/kg, iv measured upto 24 hrs by LC-MS/MS analysis; assay type: ADME, organism-based; conditions: in vivo
[10] = Half life in ICR mouse at 10 mg/kg, iv measured upto 24 hrs by LC-MS/MS analysis; assay type: ADME, organism-based; conditions: in vivo
[11] = Volume of distribution at steady state in ICR mouse at 10 mg/kg, iv measured upto 24 hrs by LC-MS/MS analysis; assay type: ADME, organism-based; conditions: in vivo, read-out: Vdss
[12] = AUC (0 to t) in ICR mouse at 30 mg/kg, po measured upto 24 hrs by LC-MS/MS analysis; assay type: ADME, organism-based; set-up: time < 24 hrs, dose 30 mg/kg, route po; conditions: in vivo
[13] = AUC (0 to infinity) in ICR mouse at 30 mg/kg, po measured upto 24 hrs by LC-MS/MS analysis; assay type: ADME, organism-based; set-up: dose 30 mg/kg, time < 24 hrs, route po; conditions: in vivo
[14] = Cmax in ICR mouse at 30 mg/kg, po measured upto 24 hrs by LC-MS/MS analysis; assay type: ADME, organism-based; set-up: time < 24 hrs, dose 30 mg/kg, route po; conditions: in vivo
[15] = Half life in ICR mouse at 30 mg/kg, po measured upto 24 hrs by LC-MS/MS analysis; assay type: ADME, organism-based; conditions: in vivo
[16] = Tmax in ICR mouse at 30 mg/kg, po measured upto 24 hrs by LC-MS/MS analysis; assay type: ADME, organism-based; conditions: in vivo
[17] = Oral bioavailability in ICR mouse at 30 mg/kg measured upto 24 hrs by LC-MS/MS analysis; assay type: ADME, organism-based; conditions: in vivo
RAW264.7 [18] = assay: Anti-inflammatory activity against mouse RAW264.7 cells assessed as decrease in LPS-induced TNF-alpha mRNA levels incubated for 4 hrs followed LPS-stimulation for 24 hrs by SYBR green staining based qRT-PCR analysis; assay type: functional, cell-based; conditions: time 28.0 hrs, DDE = dose-dependent effect
RAW264.7 [19] = assay: Anti-inflammatory activity against mouse RAW264.7 cells assessed as decrease in LPS-induced IL-6 mRNA levels incubated for 4 hrs followed LPS-stimulation for 24 hrs by SYBR green staining based qRT-PCR analysis; assay type: functional, cell-based; conditions: time 28.0 hrs, DDE = dose-dependent effect
Mus musculus [20] = assay: Anti-psoriatic activity in IMQ-induced BALB/c psoriasis mouse model assessed as reduction in total clinical score at 10 mg/kg, po for 7 days; assay type: functional, organism-based; conditions: time 7.0 day
[21] = Toxicity in IMQ-induced BALB/c psoriasis mouse model assessed as body weight loss at 10 mg/kg, po for 7 days; assay type: organism-based; conditions: in vivo, 168 h, time 7 day
Mus musculus [22] = assay: Anti-psoriatic activity in IMQ-induced BALB/c psoriasis mouse model assessed as reduction IMQ- induced immune response by measuring change in spleen weight at 10 mg/kg, po for 7 days; assay type: functional, organism-based; conditions: time 7.0 day
Mus musculus [23] = organism: Mus musculus; assay: Anti-psoriatic activity in IMQ-induced BALB/c psoriasis mouse model assessed as reduction in thickness score at 62.5 mg as 2% ointment, TOP daily and measured upto 7 days; assay type: functional, organism-based; conditions: time <= 7.0 day, DDE = dose-dependent effect
[24] = Toxicity in IMQ-induced BALB/c psoriasis mouse model assessed as body weight loss at 62.5 mg as 2% ointment, TOP daily and measured upto 7 days; conditions: in vivo, topical_or_ocular, 168 h, time < 7 day
[25] = Toxicity in BALB/c mouse assessed as skin lesions at 62.5 mg as 2% ointment, TOP daily and measured upto 7 days; conditions: in vivo, topical_or_ocular, 168 h, time < 7 day
Mus musculus [26] = organism: Mus musculus; assay: Anti-psoriatic activity in IMQ-induced BALB/c psoriasis mouse model assessed as change in skin thickness at 62.5 mg as 2% ointment, TOP daily for 7 days by hematoxylin and eosin staining based confocal laser scanning microscopy; assay type: functional, organism-based; conditions: time 7.0 day
Mus musculus [27] = organism: Mus musculus; assay: Anti-psoriatic activity in IMQ-induced BALB/c psoriasis mouse model assessed as reduction in dermal cell proliferation at 62.5 mg as 2% ointment, TOP daily for 7 days by Ki67+ expression based immunohistochemistry analysis; assay type: functional, organism-based; conditions: time 7.0 day
Mus musculus [28] = organism: Mus musculus; assay: Anti-psoriatic activity in IMQ-induced BALB/c psoriasis mouse model assessed as reduction in epidermal cell proliferation at 62.5 mg as 2% ointment, TOP daily for 7 days by Ki67+ expression based immunohistochemistry analysis; assay type: functional, organism-based; conditions: time 7.0 day
Mus musculus [29] = organism: Mus musculus; assay: Anti-psoriatic activity in IMQ-induced BALB/c psoriasis mouse model assessed as reduction in scales score at 62.5 mg as 4% ointment, TOP daily and measured upto 7 days; assay type: functional, organism-based; conditions: time <= 7.0 day, DDE = dose-dependent effect
Mus musculus [30] = organism: Mus musculus; assay: Anti-psoriatic activity in IMQ-induced BALB/c psoriasis mouse model assessed as reduction in thickness score at 62.5 mg as 4% ointment, TOP daily and measured upto 7 days; assay type: functional, organism-based; conditions: time <= 7.0 day, DDE = dose-dependent effect
[31] = Toxicity in IMQ-induced BALB/c psoriasis mouse model assessed as body weight loss at 62.5 mg as 4% ointment, TOP daily and measured upto 7 days; conditions: in vivo, topical_or_ocular, 168 h, time < 7 day
[32] = Toxicity in BALB/c mouse assessed as skin lesions at 62.5 mg as 4% ointment, TOP daily and measured upto 7 days; conditions: in vivo, topical_or_ocular, 168 h, time < 7 day
[33] = Toxicity in BALB/c mouse assessed as body weight loss at 62.5 mg as 4% ointment, TOP daily and measured upto 7 days; conditions: in vivo, topical_or_ocular, 168 h, time < 7 day
Mus musculus [34] = organism: Mus musculus; assay: Anti-psoriatic activity in IMQ-induced BALB/c psoriasis mouse model assessed as change in skin thickness at 62.5 mg as 4% ointment, TOP daily for 7 days by hematoxylin and eosin staining based confocal laser scanning microscopy; assay type: functional, organism-based; conditions: time 7.0 day
Mus musculus [35] = organism: Mus musculus; assay: Anti-psoriatic activity in IMQ-induced BALB/c psoriasis mouse model assessed as reduction in epidermal cell proliferation at 62.5 mg as 4% ointment, TOP daily for 7 days by Ki67+ expression based immunohistochemistry analysis; assay type: functional, organism-based; conditions: time 7.0 day

Sequence of cAMP and cAMP-inhibited cGMP 3',5'-cyclic phosphodiesterase 10A (Q9Y233 whole entry, the tested form may be a part): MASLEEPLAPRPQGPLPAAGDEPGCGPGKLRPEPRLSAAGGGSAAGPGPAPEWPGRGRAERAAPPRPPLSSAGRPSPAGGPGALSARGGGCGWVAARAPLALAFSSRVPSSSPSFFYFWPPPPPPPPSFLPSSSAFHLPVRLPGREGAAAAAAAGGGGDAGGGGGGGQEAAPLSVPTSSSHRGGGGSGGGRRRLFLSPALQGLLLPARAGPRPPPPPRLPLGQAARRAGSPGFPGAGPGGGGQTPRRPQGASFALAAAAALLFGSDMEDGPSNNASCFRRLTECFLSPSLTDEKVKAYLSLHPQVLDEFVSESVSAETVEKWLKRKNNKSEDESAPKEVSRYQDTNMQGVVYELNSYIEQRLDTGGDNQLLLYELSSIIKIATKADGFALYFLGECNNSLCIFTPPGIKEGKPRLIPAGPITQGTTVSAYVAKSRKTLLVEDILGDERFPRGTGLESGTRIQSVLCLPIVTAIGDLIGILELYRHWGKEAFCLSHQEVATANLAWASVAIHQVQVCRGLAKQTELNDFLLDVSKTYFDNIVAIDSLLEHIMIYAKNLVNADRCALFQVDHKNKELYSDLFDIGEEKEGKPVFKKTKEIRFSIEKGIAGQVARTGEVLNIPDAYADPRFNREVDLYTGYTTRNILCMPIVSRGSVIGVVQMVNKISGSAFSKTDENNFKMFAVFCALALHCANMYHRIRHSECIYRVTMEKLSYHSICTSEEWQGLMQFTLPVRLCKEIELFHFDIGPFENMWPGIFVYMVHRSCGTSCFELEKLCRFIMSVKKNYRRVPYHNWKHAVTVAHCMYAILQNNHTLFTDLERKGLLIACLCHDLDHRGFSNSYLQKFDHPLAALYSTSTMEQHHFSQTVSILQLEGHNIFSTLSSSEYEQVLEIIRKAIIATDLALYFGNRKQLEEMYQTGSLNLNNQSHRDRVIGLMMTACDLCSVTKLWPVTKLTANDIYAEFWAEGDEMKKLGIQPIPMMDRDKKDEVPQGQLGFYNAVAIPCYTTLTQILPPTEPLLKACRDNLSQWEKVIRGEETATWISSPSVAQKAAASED
Sequence of Dual specificity calcium/calmodulin-dependent 3',5'-cyclic nucleotide phosphodiesterase 1B (Q01064 whole entry, the tested form may be a part): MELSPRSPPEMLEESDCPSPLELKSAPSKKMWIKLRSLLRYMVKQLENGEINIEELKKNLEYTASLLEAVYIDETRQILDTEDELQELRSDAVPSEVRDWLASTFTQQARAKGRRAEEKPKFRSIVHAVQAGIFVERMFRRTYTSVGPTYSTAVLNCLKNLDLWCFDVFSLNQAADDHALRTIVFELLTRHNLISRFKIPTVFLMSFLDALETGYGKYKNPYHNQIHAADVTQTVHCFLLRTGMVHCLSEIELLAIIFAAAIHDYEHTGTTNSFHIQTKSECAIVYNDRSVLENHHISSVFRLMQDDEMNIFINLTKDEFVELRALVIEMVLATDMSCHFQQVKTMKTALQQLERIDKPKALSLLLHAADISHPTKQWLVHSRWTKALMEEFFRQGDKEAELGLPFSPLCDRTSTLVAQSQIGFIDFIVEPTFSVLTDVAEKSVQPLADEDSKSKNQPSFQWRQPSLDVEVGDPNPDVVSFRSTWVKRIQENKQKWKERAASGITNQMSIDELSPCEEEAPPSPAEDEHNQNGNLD
Sequence of 3',5'-cyclic-AMP phosphodiesterase 4D (Q08499 whole entry, the tested form may be a part): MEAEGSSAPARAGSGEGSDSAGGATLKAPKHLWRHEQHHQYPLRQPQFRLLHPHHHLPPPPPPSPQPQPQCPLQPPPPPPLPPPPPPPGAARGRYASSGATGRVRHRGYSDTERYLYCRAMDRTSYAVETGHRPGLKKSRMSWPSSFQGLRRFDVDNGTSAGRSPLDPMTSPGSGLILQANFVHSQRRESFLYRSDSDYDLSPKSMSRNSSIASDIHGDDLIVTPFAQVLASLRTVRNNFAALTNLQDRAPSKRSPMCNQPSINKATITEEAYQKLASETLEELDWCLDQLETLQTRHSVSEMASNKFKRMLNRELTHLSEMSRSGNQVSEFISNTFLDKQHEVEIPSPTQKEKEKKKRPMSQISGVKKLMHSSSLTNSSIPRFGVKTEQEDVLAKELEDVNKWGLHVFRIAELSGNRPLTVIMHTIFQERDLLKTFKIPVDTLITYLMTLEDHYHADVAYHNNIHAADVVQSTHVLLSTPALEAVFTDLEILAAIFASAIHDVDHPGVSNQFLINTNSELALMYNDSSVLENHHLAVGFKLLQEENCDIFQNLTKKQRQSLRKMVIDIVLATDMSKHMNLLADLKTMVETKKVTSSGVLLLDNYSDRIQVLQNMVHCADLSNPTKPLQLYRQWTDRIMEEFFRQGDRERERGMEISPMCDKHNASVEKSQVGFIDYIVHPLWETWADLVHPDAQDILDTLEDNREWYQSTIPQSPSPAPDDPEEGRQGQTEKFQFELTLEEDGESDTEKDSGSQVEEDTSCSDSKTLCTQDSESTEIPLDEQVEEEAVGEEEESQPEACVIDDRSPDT
Sequence of cGMP-dependent 3',5'-cyclic phosphodiesterase (O00408 whole entry, the tested form may be a part): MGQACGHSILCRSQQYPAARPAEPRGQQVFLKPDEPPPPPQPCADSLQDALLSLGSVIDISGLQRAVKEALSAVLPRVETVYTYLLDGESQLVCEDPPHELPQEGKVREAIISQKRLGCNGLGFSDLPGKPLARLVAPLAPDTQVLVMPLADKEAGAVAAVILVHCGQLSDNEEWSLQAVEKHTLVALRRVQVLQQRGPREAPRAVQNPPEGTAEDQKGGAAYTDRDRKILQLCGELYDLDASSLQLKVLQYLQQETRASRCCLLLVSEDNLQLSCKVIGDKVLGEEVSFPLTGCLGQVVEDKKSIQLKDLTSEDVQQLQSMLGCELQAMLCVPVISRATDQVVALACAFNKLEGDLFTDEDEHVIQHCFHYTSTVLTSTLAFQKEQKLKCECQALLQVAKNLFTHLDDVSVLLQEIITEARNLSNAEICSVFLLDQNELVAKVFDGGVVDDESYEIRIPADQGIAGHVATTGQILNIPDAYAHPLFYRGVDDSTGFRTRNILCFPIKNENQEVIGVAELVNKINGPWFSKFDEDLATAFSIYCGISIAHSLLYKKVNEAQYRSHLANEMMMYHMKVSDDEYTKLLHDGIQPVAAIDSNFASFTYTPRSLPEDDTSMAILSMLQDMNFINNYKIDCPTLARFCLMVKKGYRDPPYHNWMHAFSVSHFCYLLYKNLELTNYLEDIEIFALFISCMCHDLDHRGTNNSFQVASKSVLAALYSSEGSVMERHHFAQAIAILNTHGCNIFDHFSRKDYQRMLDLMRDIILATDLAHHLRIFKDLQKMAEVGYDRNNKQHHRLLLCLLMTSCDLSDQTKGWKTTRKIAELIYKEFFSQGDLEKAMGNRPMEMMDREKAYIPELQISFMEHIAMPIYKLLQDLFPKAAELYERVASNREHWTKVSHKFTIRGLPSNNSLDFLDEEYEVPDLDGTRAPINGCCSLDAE

In the case of `CCn1c(=O)c2c(c3ccc(C)nc31)O[C@@](C)(CCO)C[C@H]2C=C(C)C`, the IC50 [1] is reported as 1.76 µM, the half-life [2] is reported as 0.9 min and the IC50 [3] is reported as 0.0031 µM. It also gave an IC50 [4] of over 10 µM, an IC50 [5] of 1.51 µM and a half-life [6] of 2.9 min. The AUC(0-t) at 24 h [7] was 2.61 µg·h/mL, the AUC(0-inf) [8] was 2.62 µg·h/mL and the C0 at 24 h [9] was 20.6 µg/mL. It also gave a half-life [10] of 55.2 min, a Vd [11] of 0.77 L/kg and an AUC(0-t) at 24 h [12] of 1.13 µg·h/mL. The AUC(0-inf) [13] was 1.2 µg·h/mL, the Cmax [14] was 0.391 µg/mL and the half-life [15] was 109 min. The Tmax [16] was 60 min, the bioavailability [17] was 14.4% and the Activity (RAW264.7 [18]) was “Dde”. For the same molecule, the Activity (RAW264.7 [19]) was “Dde”, the Activity (Mus musculus [20]) was “Active” and the Activity [21] was “Non-Toxic”. The Activity (Mus musculus [22]) was “Active”, the Activity (Mus musculus [23]) was “Dde” and the Activity [24] was “Non-Toxic”. The Activity [25] was “Non-Toxic”, the Activity (Mus musculus [26]) was “Active” and the Activity (Mus musculus [27]) was “Active”. The Activity (Mus musculus [28]) was “Active”, the Activity (Mus musculus [29]) was “Dde” and the Activity (Mus musculus [30]) was “Dde”. For the same molecule, the Activity [31] was “Non-Toxic”, the Activity [32] was “Non-Toxic” and the Activity [33] was “Non-Toxic”. The Activity (Mus musculus [34]) was “Active” and the Activity (Mus musculus [35]) was “Active”.
